Assay results reported in US20140162285A1, “Methods of Modulating Vesicular Trafficking” (The General Hospital Corporation, priority 2009, published 2014).
Peptide text beside a SMILES is read from it. * marks the point of attachment. Biotin = O=C1N[C@H]2[C@H](CS[C@H]2CCCCC(=O)*)N1

Molecular target: T1, PH-domain of ARNO (Homo sapiens, UniProt Q99418)
T1 construct: iv) 253-378aa, plekstrin-homology (PH) domain; made in house; host or cells: E. coli BL21(DE3)
T1 sequence (Q99418 253-378): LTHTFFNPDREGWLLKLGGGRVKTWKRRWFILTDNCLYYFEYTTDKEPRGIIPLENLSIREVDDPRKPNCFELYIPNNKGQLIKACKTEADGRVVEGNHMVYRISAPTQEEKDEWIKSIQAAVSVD
Experiment: a2N-derived peptide pull-down with GST-PH domain
Assay type: binding
Description: FIGS. 5A-C are a set of three images of Western blots showing the identification of interaction motif of a2N that is involved in specific binding with the Sec7 domain of ARNO. 5A, The catalytic Sec7 domain of ARNO interacts with two a2N-derived peptides, a2N-01 and a2N-03, in pull-down experiments. The peptide pull-down assay was performed with six a2N-derived interaction peptides immobilized on streptavidin-beads and incubated with purified recombinant GST-only or GST-Sec7 domain. Interacting complexes were eluted and analyzed by Western blotting using monoclonal anti-GST antibodies as described below. The loading controls for GST-only (lane 1) or GST-Sec7 (lane 2) are shown. […] The peptide pull-down assay was performed with peptides a2N-01 and a2N-03 immobilized on streptavidin-beads and incubated with purified recombinant GST-PH domain (5B) or GST-PB domain (5C). Interacting complexes were eluted and analyzed by Western blotting using monoclonal anti-GST antibodies. […]
These a2N-derived peptides were immobilized by an N-terminal biotin-tag, which ensured the same efficiency and equivalent binding to streptavidin-agarose beads. […] After washing beads four times in ice-cold binding buffer, the interacting complexes were eluted by boiling in SDS-PAGE sample buffer for 10 min at 95° C., resolved by SDS-PAGE and analyzed by Western blotting using monoclonal anti-GST antibody. […]

CSCC[C@H](NC(=O)CCCC[C@@H]1SC[C@@H]2NC(=O)N[C@@H]21)C(=O)NCC(=O)N[C@@H](CO)C(=O)N[C@@H](CC(C)C)C(=O)N[C@@H](Cc1ccccc1)C(=O)N[C@@H](CCCNC(=N)N)C(=O)N[C@@H](CO)C(=O)N[C@@H](CCC(=O)O)C(=O)N[C@@H](CO)C(=O)N[C@@H](CCSC)C(=O)N[C@@H](CS)C(=O)N[C@@H](CC(C)C)C(=O)N[C@@H](C)C(=O)N[C@@H](CCC(N)=O)C(=O)N[C@@H](CC(C)C)C(=O)N[C@@H](Cc1ccccc1)C(=O)N[C@@H](CC(C)C)C(=O)N[C@@H](CS)C(=O)O [a2N-01, Bio-MGSLFRSE SMCLAQLFL-Cys] (Biotin-MGSLFRSESMCLAQLFLC-OH; N-terminus and C-terminus assumed)
interaction with PH-domain of ARNO: does not interact
